# Reference: patent US20210300924A1, “5-[6-[[3-(4,5,6,7-TETRAHYDROPYRAZOLO[4,3-C]PYRIDIN-1-YL)AZETIDIN-1-YL]METHYL]MORPHOLIN-4-YL]QUINOLINE-8-CARBONITRILE DERIVATIVES AND SIMILAR COMPOUNDS AS TLR7-9 ANTAGONISTS FOR TREATING SYSTEMIC LUPUS ERYTHEMATOSUS” (Hoffmann-La Roche Inc., priority 2018, published 2021)
# Assays:
# hERG channel = molecular target: T1, hERG channel (Homo sapiens, UniProt Q12809); assay: hERG channel inhibition assay (patch-clamp, CHOhERG cells); type: cell-based; settings: for IC50 / IC20: CHOhERG cells, whole-cell patch-clamp; for IC20: human, CHO cells stably expressing hERG (CHOhERG cells); for hERG IC20/TLR7 IC50 / hERG IC20/TLR8 IC50 / hERG IC20/TLR9 IC50: safety ratio, >30 suggests sufficient window
# T1 construct: expressed in transfected cells; host or cells: CHO (Chinese hamster ovary), CHOhERG
# T1 sequence (Q12809 whole entry): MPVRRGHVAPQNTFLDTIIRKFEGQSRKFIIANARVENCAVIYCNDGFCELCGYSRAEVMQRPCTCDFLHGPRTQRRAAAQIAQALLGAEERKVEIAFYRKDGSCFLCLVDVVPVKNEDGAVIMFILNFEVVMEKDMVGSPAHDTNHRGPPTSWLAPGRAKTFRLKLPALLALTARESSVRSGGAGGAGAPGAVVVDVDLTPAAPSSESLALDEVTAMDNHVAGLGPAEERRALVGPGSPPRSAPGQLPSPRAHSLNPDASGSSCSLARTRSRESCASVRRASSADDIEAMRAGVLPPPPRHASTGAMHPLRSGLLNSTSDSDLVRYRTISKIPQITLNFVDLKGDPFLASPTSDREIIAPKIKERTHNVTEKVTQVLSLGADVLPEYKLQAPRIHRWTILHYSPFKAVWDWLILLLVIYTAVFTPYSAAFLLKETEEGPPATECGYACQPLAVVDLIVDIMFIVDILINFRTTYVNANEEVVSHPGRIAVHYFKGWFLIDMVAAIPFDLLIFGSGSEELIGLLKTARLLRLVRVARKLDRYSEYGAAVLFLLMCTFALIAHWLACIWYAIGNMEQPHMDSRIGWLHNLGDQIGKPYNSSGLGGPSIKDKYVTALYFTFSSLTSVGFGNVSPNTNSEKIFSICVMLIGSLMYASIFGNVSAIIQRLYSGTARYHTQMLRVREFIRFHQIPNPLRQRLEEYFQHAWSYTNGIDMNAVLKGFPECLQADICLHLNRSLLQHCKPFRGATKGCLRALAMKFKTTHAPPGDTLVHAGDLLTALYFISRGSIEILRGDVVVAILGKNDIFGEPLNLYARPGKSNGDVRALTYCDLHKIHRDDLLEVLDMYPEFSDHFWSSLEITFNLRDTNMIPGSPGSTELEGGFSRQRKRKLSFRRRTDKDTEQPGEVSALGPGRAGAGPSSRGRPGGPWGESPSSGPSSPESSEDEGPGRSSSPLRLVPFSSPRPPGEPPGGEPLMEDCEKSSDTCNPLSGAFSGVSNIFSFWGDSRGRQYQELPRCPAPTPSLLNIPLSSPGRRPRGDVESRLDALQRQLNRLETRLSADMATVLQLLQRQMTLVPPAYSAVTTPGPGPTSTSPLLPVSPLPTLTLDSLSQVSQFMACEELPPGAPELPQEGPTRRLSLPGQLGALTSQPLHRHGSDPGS
# Procedure: hERG Channel Inhibition Assay:
# The hERG K^+ channels were cloned in humans and stably expressed in a CHO (Chinese hamster ovary) cell line. CHOhERG cells were used for patch-clamp (voltage-clamp, whole-cell) experiments. Cells were stimulated by a voltage pattern to activate hERG channels and conduct hERG currents (rapid delayed outward rectifier potassium current of the hERG channel). After the cells were stabilized for a few minutes, the amplitude and kinetics of IKhERG were recorded at a stimulation frequency of 0.1 Hz (6 bpm). Thereafter, the test compound was added to the preparation at increasing concentrations. For each concentration, an attempt was made to reach a steady-state effect, usually, this was achieved within 3-10 min at which time the next highest concentration was applied. The amplitude and kinetics of IKhERG are recorded in each concentration of the drug which were compared to the control values (taken as 100%). (references: Redfern W S, Carlsson L, Davis A S, Lynch W G, MacKenzie I, Palethorpe S, Siegl P K, Strang I, Sullivan A T, Wallis R, Camm A J, Hammond T G. 2003; Relationships between preclinical cardiac electrophysiology, clinical QT interval prolongation and torsade de pointes for a broad range of drugs: evidence for a provisional safety margin in drug development. Cardiovasc. Res. 58:32-45, Sanguinetti MC, Tristani-Firouzi M. 2006; hERG potassium channels and cardiac arrhythmia. Nature 440:463-469, Webster R, Leishman D, Walker D. 2002; Towards a drug concentration effect relationship for QT prolongation and torsades de pointes. Curr. Opin. Drug Discov. Devel. 5:116-26).
# TLR9 = molecular target: T2, TLR9 (Homo sapiens, UniProt Q9NR96); assay: Human PBMC cell-based assay; design: endogenous in cells; host or cells: human PBMC from healthy donor whole blood; settings: CpG ODN 2216 stimulation, overnight, cytokine readout, read-out: hPBMC/TLR9 IC50
# T2 sequence (Q9NR96 26-1032): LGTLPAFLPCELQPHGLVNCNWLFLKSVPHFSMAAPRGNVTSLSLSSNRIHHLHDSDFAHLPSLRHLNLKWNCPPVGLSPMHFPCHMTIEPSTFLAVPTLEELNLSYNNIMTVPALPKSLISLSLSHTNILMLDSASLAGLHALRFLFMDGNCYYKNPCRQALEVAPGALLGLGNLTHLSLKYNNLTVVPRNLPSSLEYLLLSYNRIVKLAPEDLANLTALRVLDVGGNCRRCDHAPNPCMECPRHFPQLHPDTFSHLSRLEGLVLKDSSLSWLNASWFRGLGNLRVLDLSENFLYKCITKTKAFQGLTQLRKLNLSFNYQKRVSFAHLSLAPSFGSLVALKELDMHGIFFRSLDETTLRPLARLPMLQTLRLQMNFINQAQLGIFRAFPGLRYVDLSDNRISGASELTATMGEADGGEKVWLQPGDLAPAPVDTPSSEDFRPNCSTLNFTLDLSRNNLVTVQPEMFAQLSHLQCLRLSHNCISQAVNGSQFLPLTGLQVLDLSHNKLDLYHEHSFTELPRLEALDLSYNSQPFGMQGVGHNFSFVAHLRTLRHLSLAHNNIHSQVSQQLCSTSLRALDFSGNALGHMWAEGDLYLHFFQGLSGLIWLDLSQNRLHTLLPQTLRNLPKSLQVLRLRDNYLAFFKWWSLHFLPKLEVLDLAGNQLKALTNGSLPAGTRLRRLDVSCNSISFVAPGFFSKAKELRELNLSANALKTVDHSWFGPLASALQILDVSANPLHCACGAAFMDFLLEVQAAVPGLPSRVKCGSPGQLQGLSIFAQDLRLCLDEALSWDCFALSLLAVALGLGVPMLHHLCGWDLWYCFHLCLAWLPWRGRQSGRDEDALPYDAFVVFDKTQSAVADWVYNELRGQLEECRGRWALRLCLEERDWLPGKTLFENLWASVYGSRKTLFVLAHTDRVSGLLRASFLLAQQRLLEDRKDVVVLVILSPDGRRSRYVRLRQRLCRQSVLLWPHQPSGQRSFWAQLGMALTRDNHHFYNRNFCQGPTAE
# Text: Human PBMC Cell-Based Assay
# Unlike the HEK reporter cell lines, human peripheral blood mononuclear cell (PBMC) represents primary human immune cells in blood mainly consisting of lymphocytes, monocytes, and dendritic cells. These cells express TLR7, TLR8, or TLR9, and therefore are natural responders to respective ligand stimulation. Upon activation of these TLRs, PBMCs secrete similar cytokines and chemokines in vitro and in vivo, and therefore the in vitro potency of a TLR7/8/9 antagonist in human PBMC is readily translatable to its pharmacodynamics response in vivo.
# Human peripheral blood mononuclear cells (PBMC) were isolated from freshly-drawn lithium-heparinized (Lithium Heparin Plus blood Collection tube, BD Vacutainer®) healthy donor whole blood by density gradient (Ficoll-Paque™ PLUS, GE Healthcare life Sciences). Briefly, […] was diluted with 25 mL PBS (without Ca^2+, Mg^2+) in a 50 mL conical tube with porous barrier (Leucosep tube, Greiner bio-one), where 15.5 mL Ficoll-Paque was under laid after spinning. Tubes were centrifuged for 20 minutes at 800×g (1946 rpm) with the brake in the off position, and PBMC were collected from the buffy coat. Cells were then washed twice in PBS, and red blood cells were lysed by suspension in 2 mL (Red Blood Cell Lysis Buffer, Alfa Aesar) for 5-10 minutes at room temperature. After a final wash in PBS, PBMC were resuspended at a final concentration of 2×10^6 cells/mL in RPMI-1640 media with GlutaMAX™ (Gibco) supplemented with 10% Fetal Bovine Serum (Sigma) and plated at 150 μL/well (3×10^5 cells/well) in tissue culture treated round bottom 96-well plates (Corning Incorporated). Antagonist compounds (compounds of this invention) solubilized and serial diluted in 100% DMSO were added in duplicate to cells to yield a final concentration of 1% DMSO (v/v). PBMC were incubated with antagonist compounds for 30 minutes at 37° C., 5% CO2 before adding various TLR agonist reagents in 48 μL complete media per well as follows (final concentrations indicated): CpG ODN 2216 (InvivoGen) at […] for TLR9, ORN 06/LyoVec (InvivoGen) at 1 μg/mL for TLR8 and R848 (InvivoGen) at 1 μg/mL for TLR7 and TLR8. PBMC were incubated overnight at 37° C. with 5% CO2. Cell culture supernatants were collected, and levels of various human cytokines were assessed by Luminex assay (ProcartaPlex™ Multiplex Immunoassay, Invitrogen) or ELISA procedure according to the manufacturer's recommended protocol (eBioscience, ThermoFisher Scientific). Viability of the cells was also checked with Cell Viability Assay (CellTiter Glo® Luminescent Cell Viability Assay, Promega).
Compound,IC50 (hERG channel),IC20 (hERG channel),hERG IC20/TLR7 IC50 (hERG channel),hERG IC20/TLR8 IC50 (hERG channel),hERG IC20/TLR9 IC50 (hERG channel),IC50 (TLR9)
"C[C@@H]1CN(c2ccc(C#N)c3ncccc23)C[C@H](CN2CC(n3ncc4c3CNCC4)C2)O1 [Example 3, 5-[(2R,6S)-2-methyl-6-[[3-(4,5,6,7-tetrahydropyrazolo[3,4-c]pyridin-1-yl)azetidin-1-yl]methyl]morpholin-4-yl]quinoline-8-carbonitrile]",> 20000 nM,> 10000 nM,>2901.3,>1739.2,>194.9,118 nM
"CCN1CCc2cn(C3CN(C[C@H]4CN(c5ccc(C#N)c6ncccc56)C[C@@H](C)O4)C3)nc2C1 [Example 7, 5-[(2S,6R)-2-[[3-(6-ethyl-5,7-dihydro-4H-pyrazolo[3,4-c]pyridin-2-yl)azetidin-1-yl]methyl]-6-methyl-morpholin-4-yl]quinoline-8-carbonitrile]",,,,,,195 nM
"C[C@@H]1CN(c2ccc(C#N)c3ncccc23)C[C@H](CN2CC(n3cc4c(n3)CN[C@@H](C)C4)C2)O1 (single isomer, unassigned) [Example 29]",> 20000 nM,> 10000 nM,>1265.8,>877.2,>138.3,115 nM
"Cc1nn(C2CN(C[C@H]3CN(c4ccc(C#N)c5ncccc45)C[C@@H](C)O3)C2)c2c1CNCC2 [Example 12, 5-[(2R,6S)-2-methyl-6-[[3-(3-methyl-4,5,6,7-tetrahydropyrazolo[4,3-c]pyridin-1-yl)azetidin-1-yl]methyl]morpholin-4-yl]quinoline-8-carbonitrile]",> 20000 nM,> 10000 nM,>666.7,>226.8,>127.6,92 nM
"C[C@@H]1CN(c2ccc(C#N)c3ncccc23)C[C@H](CN2CC(n3cc4c(n3)CCN[C@@H]4C)C2)O1 [Example 21, 5-[(2R,6S)-2-methyl-6-[[3-[(4R)-4-methyl-4,5,6,7-tetrahydropyrazolo[4,3-c]pyridin-2-yl]azetidin-1-yl]methyl]morpholin-4-yl]quinoline-8-carbonitrile]",,,,,,92 nM
"C[C@@H]1CN(c2ccc(C#N)c3ncccc23)C[C@H](CN2CC(n3cc4c(n3)CNCC4)C2)O1 [Example 4, 5-[(2R,6S)-2-methyl-6-[[3-(4,5,6,7-tetrahydropyrazolo[3,4-c]pyridin-2-yl)azetidin-1-yl]methyl]morpholin-4-yl]quinoline-8-carbonitrile]",> 20000 nM,> 10000 nM,>1136.4,>1162.8,>314.5,198 nM
"C[C@@H]1CN(c2ccc(C#N)c3ncccc23)C[C@H](CN2CC(n3ncc4c3CN[C@@H](C)C4)C2)O1 (single isomer, unassigned) [Example 27]",,,,,,81 nM
"C[C@@H]1CN(c2ccc(C#N)c3ncccc23)C[C@H](CN2CC(n3ncc4c3[C@H](C)NCC4)C2)O1 (single isomer, unassigned) [Example 32]",,,,,,145 nM
"C[C@@H]1CN(c2ccc(C#N)c3ncccc23)C[C@H](CN2CC(n3cc4c(n3)[C@H](C)NCC4)C2)O1 (single isomer, unassigned) [Example 34]",,,,,,202 nM
"C[C@@H]1CN(c2ccc(C#N)c3ncccc23)C[C@H](CN2CC(n3ncc4c3CCN[C@@H]4C)C2)O1 [Example 20, 5-[(2R,6S)-2-methyl-6-[[3-[(4R)-4-methyl-4,5,6,7-tetrahydropyrazolo[4,3-c]pyridin-1-yl]azetidin-1-yl]methyl]morpholin-4-yl]quinoline-8-carbonitrile]",,,,,,97 nM
"Cc1c2c(nn1C1CN(C[C@H]3CN(c4ccc(C#N)c5ncccc45)C[C@@H](C)O3)C1)CCN(C)C2 [Example 15, 5-[(2S,6R)-2-[[3-(3,5-dimethyl-6,7-dihydro-4H-pyrazolo[4,3-c]pyridin-2-yl)azetidin-1-yl]methyl]-6-methyl-morpholin-4-yl]quinoline-8-carbonitrile]",,,,,,110 nM
"C[C@@H]1CN(c2ccc(C#N)c3ncccc23)C[C@H](CN2CC(n3cc4c(n3)[C@H](C)CNC4)C2)O1 (single isomer, unassigned) [Example 25]",,,,,,346 nM
"C[C@@H]1Cc2nn(C3CN(C[C@H]4CN(c5ccc(C#N)c6ncccc56)C[C@@H](C)O4)C3)cc2CN1 [Example 17, 5-[(2R,6S)-2-methyl-6-[[3-[(6R)-6-methyl-4,5,6,7-tetrahydropyrazolo[4,3-c]pyridin-2-yl]azetidin-1-yl]methyl]morpholin-4-yl]quinoline-8-carbonitrile]",,,,,,113 nM
"C[C@@H]1CN(c2ccc(C#N)c3ncccc23)C[C@H](CN2CC(n3cc4c(n3)CCN[C@H]4C)C2)O1 [Example 23, 5-[(2R,6S)-2-methyl-6-[[3-[(4S)-4-methyl-4,5,6,7-tetrahydropyrazolo[4,3-c]pyridin-2-yl]azetidin-1-yl]methyl]morpholin-4-yl]quinoline-8-carbonitrile]",,,,,,143 nM
"C[C@@H]1Cc2cnn(C3CN(C[C@H]4CN(c5ccc(C#N)c6ncccc56)C[C@@H](C)O4)C3)c2CN1 (single isomer, unassigned) [Example 28]",,,,,,214 nM
"C[C@@H]1CN(c2ccc(C#N)c3ncccc23)C[C@H](CN2CC(n3ncc4c3[C@@H](C)NCC4)C2)O1 (single isomer, unassigned) [Example 31]",,,,,,235 nM
